Test results: ChEMBL document CHEMBL1153301, “Identification and SAR of novel diaminopyrimidines. Part 1: The discovery of RO-4, a dual P2X(3)/P2X(2/3) antagonist for the treatment of pain” (Bioorg Med Chem Lett, 2009)

Key:
P2X purinoceptor 3 = biological target: T1, P2X purinoceptor 3 (Rattus norvegicus, UniProt P49654); assay: Antagonist activity at rat recombinant P2X3 receptor expressed in CHO cells by FLIPR assay
T1 sequence (P49654 whole entry): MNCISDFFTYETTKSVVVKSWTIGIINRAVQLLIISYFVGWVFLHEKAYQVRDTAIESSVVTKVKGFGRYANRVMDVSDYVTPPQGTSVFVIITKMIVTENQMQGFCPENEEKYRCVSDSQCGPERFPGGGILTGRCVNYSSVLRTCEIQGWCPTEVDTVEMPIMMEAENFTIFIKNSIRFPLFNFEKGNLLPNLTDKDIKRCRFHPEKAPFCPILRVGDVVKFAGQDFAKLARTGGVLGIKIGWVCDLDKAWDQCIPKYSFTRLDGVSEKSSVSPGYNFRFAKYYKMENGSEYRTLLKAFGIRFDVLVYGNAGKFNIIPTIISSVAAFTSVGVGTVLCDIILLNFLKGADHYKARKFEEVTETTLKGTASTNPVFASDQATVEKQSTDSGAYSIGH

[1] = biological target: T2, P2X2/P2X3 heterotrimeric receptor (Homo sapiens, UniProt P56373+Q9UBL9); assay: Antagonist activity at human recombinant P2X2/3 receptor expressed in human 1321N1 cells by FLIPR assay; type: functional, cell-based
T2 sequence (Q9UBL9 whole entry): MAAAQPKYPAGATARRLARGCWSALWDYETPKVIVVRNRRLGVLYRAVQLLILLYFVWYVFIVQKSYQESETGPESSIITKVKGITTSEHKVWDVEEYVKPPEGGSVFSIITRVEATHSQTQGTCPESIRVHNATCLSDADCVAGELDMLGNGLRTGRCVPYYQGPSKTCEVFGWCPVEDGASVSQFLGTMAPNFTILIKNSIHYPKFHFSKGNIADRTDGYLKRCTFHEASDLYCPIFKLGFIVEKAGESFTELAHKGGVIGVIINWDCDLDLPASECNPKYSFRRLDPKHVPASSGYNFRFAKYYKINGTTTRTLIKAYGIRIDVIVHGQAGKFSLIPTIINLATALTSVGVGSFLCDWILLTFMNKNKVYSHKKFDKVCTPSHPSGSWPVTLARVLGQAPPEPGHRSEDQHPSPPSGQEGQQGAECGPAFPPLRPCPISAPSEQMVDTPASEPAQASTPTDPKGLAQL
T2 sequence (P56373 whole entry): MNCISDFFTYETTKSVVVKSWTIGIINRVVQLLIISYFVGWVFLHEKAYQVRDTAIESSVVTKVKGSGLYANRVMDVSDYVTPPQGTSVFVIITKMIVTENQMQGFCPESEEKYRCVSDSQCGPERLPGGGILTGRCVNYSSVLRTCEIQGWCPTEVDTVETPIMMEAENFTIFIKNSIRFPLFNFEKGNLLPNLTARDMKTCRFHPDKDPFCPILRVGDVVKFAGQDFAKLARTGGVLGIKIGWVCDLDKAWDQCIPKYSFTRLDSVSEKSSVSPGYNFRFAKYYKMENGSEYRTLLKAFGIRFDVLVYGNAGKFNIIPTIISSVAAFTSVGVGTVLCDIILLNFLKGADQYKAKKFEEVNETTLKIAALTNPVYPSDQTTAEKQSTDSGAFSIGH

P2X purinoceptor 1 = biological target: T3, P2X purinoceptor 1 (Homo sapiens, UniProt P51575); assay: Inhibition of P2X1 receptor
T3 sequence (P51575 whole entry): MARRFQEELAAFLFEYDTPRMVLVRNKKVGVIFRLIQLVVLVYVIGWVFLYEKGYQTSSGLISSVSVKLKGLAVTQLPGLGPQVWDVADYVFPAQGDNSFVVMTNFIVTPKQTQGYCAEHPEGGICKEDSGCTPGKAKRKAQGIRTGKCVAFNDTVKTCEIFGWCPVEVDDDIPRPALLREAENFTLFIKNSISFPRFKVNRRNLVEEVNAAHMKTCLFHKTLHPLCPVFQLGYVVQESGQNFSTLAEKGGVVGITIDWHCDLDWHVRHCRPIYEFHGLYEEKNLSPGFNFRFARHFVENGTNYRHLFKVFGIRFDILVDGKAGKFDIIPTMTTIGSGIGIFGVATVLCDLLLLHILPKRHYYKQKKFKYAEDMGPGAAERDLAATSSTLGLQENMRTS

P2X purinoceptor 2 = biological target: T4, P2X purinoceptor 2 (Homo sapiens, UniProt Q9UBL9); assay: Inhibition of P2X2 receptor
T4 sequence (Q9UBL9 whole entry): T2 sequence (Q9UBL9 whole entry)

P2X purinoceptor 4 = biological target: T5, P2X purinoceptor 4 (Homo sapiens, UniProt Q99571); assay: Inhibition of P2X4 receptor
T5 sequence (Q99571 whole entry): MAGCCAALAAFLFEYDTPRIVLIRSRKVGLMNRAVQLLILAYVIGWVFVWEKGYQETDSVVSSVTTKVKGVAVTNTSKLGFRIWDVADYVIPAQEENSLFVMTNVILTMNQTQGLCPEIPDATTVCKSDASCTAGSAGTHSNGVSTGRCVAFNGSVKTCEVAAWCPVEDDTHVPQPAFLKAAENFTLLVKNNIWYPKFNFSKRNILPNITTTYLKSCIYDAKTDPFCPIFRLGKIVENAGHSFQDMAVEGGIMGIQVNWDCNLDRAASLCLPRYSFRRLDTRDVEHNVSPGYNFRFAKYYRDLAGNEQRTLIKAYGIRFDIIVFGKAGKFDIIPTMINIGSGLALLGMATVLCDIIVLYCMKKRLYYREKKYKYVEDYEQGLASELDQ

P2X purinoceptor 5 = P2X purinoceptor 5 (Homo sapiens, UniProt Q93086); assay: Inhibition of P2X5 receptor
P2X purinoceptor 7 = biological target: T6, P2X purinoceptor 7 (Homo sapiens, UniProt Q99572); assay: Inhibition of P2X7 receptor
T6 sequence (Q99572 whole entry): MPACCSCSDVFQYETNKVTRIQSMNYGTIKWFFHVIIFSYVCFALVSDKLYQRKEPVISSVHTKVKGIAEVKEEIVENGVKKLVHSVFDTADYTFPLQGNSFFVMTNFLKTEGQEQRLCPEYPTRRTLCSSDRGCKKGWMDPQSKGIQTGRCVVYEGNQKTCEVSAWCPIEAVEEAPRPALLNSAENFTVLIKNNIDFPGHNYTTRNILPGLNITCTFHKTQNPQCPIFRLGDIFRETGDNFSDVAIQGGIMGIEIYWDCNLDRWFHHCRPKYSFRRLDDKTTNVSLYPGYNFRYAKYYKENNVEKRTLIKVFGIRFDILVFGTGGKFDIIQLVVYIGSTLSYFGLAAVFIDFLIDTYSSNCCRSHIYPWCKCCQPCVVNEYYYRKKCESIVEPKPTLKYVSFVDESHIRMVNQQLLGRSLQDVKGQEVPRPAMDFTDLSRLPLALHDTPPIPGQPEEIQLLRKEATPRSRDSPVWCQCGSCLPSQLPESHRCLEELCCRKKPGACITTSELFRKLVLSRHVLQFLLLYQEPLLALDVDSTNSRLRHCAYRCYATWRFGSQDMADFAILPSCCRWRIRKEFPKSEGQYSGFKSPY

[2] = Inhibition of ML1 receptor
Histamine H2 receptor = Histamine H2 receptor (Homo sapiens, UniProt P25021); assay: Inhibition of histamine H2 receptor
[3] = biological target: 5-hydroxytryptamine receptor 2A (Homo sapiens, UniProt P28223); assay: Inhibition of 5HT2A receptor
[4] = biological target: T7, 5-hydroxytryptamine receptor 3A (Homo sapiens, UniProt P46098); assay: Inhibition of 5HT3 receptor
T7 sequence (P46098 whole entry): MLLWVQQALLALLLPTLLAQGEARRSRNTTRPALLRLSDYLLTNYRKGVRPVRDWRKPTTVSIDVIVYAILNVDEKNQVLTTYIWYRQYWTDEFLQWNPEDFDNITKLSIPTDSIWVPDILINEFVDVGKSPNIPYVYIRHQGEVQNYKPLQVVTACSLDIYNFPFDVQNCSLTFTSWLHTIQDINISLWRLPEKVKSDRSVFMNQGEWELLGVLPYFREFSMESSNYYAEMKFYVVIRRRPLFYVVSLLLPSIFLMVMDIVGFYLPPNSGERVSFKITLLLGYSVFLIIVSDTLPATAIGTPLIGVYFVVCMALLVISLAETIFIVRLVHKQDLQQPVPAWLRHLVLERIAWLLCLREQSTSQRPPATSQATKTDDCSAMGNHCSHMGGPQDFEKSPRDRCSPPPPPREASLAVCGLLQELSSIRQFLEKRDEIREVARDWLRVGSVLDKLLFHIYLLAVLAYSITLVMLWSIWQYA

[5] = biological target: 5-hydroxytryptamine receptor 6 (Homo sapiens, UniProt P50406); assay: Inhibition of 5HT6 receptor
[6] = Clearance in dog; type: ADME, organism-based, Canis lupus familiaris; settings: in vivo
Caco-2 = assay: Ratio of permeability from basolateral to apical side over apical to basolateral side in human Caco-2 cells; type: ADME, cell-based

Chain of Histamine H2 receptor (P25021 whole entry): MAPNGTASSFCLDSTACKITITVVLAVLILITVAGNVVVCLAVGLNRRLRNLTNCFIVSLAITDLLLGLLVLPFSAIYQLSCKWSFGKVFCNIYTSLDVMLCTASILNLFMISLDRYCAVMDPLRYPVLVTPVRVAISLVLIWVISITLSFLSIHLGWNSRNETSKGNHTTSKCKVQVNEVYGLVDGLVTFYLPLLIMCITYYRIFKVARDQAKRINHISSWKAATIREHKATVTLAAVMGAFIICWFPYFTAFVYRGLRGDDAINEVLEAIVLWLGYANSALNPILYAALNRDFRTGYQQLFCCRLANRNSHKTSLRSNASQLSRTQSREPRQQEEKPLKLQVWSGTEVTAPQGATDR
Chain of P2X purinoceptor 5 (Q93086 whole entry): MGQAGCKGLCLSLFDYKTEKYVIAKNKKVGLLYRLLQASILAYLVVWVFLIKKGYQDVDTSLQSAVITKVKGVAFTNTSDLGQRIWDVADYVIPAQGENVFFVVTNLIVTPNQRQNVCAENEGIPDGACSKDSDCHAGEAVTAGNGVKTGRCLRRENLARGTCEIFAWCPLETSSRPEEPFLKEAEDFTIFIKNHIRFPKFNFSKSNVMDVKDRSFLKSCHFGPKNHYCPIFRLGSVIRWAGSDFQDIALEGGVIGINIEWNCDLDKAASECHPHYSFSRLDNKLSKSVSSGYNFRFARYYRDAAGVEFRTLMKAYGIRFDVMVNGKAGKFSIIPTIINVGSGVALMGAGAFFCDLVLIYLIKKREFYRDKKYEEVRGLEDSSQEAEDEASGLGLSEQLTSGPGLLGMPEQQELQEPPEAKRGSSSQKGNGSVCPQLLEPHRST
Chain of 5-hydroxytryptamine receptor 6 (P50406 whole entry): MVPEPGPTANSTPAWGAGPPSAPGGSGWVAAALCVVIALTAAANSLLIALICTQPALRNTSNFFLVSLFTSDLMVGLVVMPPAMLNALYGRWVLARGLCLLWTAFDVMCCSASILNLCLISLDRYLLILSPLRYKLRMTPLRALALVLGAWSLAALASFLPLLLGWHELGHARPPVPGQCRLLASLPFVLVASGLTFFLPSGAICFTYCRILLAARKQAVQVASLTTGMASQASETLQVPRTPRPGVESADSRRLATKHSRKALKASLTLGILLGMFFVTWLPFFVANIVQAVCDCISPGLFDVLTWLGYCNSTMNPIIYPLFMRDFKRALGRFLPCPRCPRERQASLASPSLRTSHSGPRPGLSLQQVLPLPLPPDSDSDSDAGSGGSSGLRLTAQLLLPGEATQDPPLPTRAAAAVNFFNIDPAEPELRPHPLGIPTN
Chain of 5-hydroxytryptamine receptor 2A (P28223 whole entry): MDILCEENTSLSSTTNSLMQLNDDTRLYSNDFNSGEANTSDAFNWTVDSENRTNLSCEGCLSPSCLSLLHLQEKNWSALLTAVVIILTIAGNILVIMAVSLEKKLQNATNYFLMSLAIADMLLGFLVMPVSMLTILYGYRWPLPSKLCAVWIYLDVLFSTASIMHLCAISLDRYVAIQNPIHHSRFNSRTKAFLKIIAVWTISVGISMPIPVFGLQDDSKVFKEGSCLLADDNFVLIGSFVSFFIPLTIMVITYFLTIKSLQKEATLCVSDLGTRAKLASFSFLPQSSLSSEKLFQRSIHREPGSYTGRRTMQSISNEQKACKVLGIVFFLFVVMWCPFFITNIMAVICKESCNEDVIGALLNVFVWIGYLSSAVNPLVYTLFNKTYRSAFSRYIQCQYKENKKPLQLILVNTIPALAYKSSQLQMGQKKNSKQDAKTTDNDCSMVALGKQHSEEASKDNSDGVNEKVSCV

| SMILES | IC50 (P2X purinoceptor 3) | IC50 [1] | also measured |
| --- | --- | --- | --- |
| COc1ccc(C(C)C)c(Oc2cnc(N)nc2N)c1 | 398 nM | 158 nM | – |
| COc1cc(C(C)C)c(Oc2cnc(N)nc2N)cc1Cl | 25.1 nM | 100 nM | – |
| COc1cc(Cc2cnc(N)nc2N)c(C2CCC2)cc1OC | > 10000 nM | > 10000 nM | – |
| COc1cc(C(C)C)c(C(O)c2cnc(N)nc2N)cc1OC (stereo not drawn) | > 10000 nM | > 10000 nM | – |
| COc1cc(C(=O)c2cnc(N)nc2N)c(C(C)C)cc1OC | > 10000 nM | > 10000 nM | – |
| COc1cc(C(C)C)c(Oc2cnc(N)nc2N)cc1C1=NCCN1 | > 10000 nM | > 10000 nM | – |
| COc1cc(Cc2cnc(N)nc2N)c(C2CC2)cc1OC | 1260 nM | > 10000 nM | – |
| COc1cc(Cc2cnc(N)nc2N)c(CC(C)C)cc1OC | > 10000 nM | 10000 nM | – |
| CCc1cc(OC)c(OC)cc1Cc1cnc(N)nc1N | – | > 10000 nM | – |
| COc1cc(Cc2cnc(N)nc2N)c(C(C)C)cc1OC | – | 2000 nM | – |
| CCc1cc(OC)c(OC)cc1Oc1cnc(N)nc1N | 158 nM | 2000 nM | – |
| CC(C)c1ccccc1Oc1cnc(N)nc1N | 3980 nM | 2000 nM | – |
| COc1cc(Oc2cnc(N)nc2N)c(C(C)C)cc1C#N | > 10000 nM | > 10000 nM | – |
| COc1cc(C(C)C)c(Oc2cnc(N)nc2N)cc1-c1ccccc1 | 1000 nM | 2510 nM | – |
| COc1cc(Cc2cnc(N)nc2N)c(C(C)(C)C)cc1OC | – | > 10000 nM | – |
| COc1ccc(Oc2cnc(N)nc2N)c(C(C)C)c1 | 1580 nM | 398 nM | – |
| CCc1cc(OC)c(OC)cc1CCc1cnc(N)nc1N | > 10000 nM | > 10000 nM | – |
| COc1cc(Oc2cnc(N)nc2N)c(C(C)C)cc1-c1ccc(F)cc1 | 2510 nM | 7940 nM | – |
| CCCc1cc(OC)c(OC)cc1Cc1cnc(N)nc1N | – | > 10000 nM | – |
| COc1cc(C)c(Cc2cnc(N)nc2N)cc1OC [ORMETOPRIM] | > 10000 nM | > 10000 nM | – |

Second part, led by results:

| IC50 (P2X purinoceptor 3) | IC50 [1] | SMILES | also measured |
| --- | --- | --- | --- |
| 100 nM | 398 nM | COc1cc(C(C)C)c(Oc2cnc(N)nc2N)cc1C | – |
| 631 nM | 2510 nM | COc1cc(C(C)C)c(Oc2cnc(N)nc2N)cc1C#N | – |
| 100 nM | 1000 nM | COc1cc(C(C)C)c(Oc2cnc(N)nc2N)cc1S(C)(=O)=O | – |
| 158 nM | 631 nM | COc1cc(C(C)C)c(Oc2cnc(N)nc2N)cc1-c1ncc[nH]1 | – |
| 39.8 nM | 398 nM | COc1cc(Oc2cnc(N)nc2N)c(C(C)C)cc1I | – |
| 501 nM | 2000 nM | COc1cc(C(C)C)c(Oc2cnc(N)nc2N)cc1C(C)C | – |
| 25.1 nM | – | COc1cc(Oc2cnc(N)nc2N)c(C(C)C)cc1OC | – |
| 3160 nM | 1580 nM | COc1cc(C(C)C)c(Oc2cnc(N)nc2N)cc1F | – |
| 20 nM | 79.4 nM | COc1cc(C(C)C)c(Oc2cnc(N)nc2N)cc1Br | – |
| – | 12.6 nM | C#Cc1cc(Oc2cnc(N)nc2N)c(C(C)C)cc1OC | – |
| 158 nM | 316 nM | COc1cc(C(C)C)c(Oc2cnc(N)nc2N)cc1C(=O)O | – |
| 50.1 nM | 158 nM | CCc1cc(Oc2cnc(N)nc2N)c(C(C)C)cc1OC | – |
| 100 nM | 1580 nM | COc1cc(C(C)C)c(Oc2cnc(N)nc2N)cc1C(N)=O | – |
| 39.8 nM | 316 nM | COc1cc(C(C)C)c(Oc2cnc(N)nc2N)cc1-c1nnn[nH]1 | – |
| 79.4 nM | 316 nM | COc1cc(Oc2cnc(N)nc2N)c(C(C)C)cc1Br | – |
| – | 79.4 nM | COc1cc(C(C)C)c(Oc2cnc(N)nc2N)cc1I | pIC50 (P2X purinoceptor 3; cho): 8; IC50 (P2X purinoceptor 1): > 10000 nM; IC50 (P2X purinoceptor 2): > 10000 nM; IC50 (P2X purinoceptor 4): > 10000 nM; IC50 (P2X purinoceptor 5): > 10000 nM; IC50 (P2X purinoceptor 7): > 10000 nM; Ki [2]: 1000 nM; Ki (Histamine H2 receptor): 1000 nM; Ki [3]: 1000 nM; Ki [4]: 1000 nM; Ki [5]: 1000 nM; clearance [6]: 13 mL/min/kg; Ratio (Caco-2): 1 |
